Consider 1 compound from paper PMC11232110 (RSC Advances, 2024).

The target of the test is enoyl acyl carrier protein reductase (InhA) (Mycobacterium tuberculosis, UniProt P9WGR1). As to the kind of experiment: InhA enzyme inhibition assay. In kind it is biochemical.
Chain of enoyl acyl carrier protein reductase (InhA) (P9WGR1 whole entry, looked up): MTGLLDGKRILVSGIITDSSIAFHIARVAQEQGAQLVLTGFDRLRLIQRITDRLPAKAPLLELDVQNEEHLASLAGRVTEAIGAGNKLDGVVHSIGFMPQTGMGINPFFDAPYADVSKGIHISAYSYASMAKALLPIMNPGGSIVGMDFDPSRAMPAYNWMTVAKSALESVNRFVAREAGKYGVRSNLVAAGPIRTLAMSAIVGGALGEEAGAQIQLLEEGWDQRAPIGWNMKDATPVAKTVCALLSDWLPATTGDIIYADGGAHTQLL

The term IC50 denotes the concentration that gives 50% inhibition. Low readings indicate greater potency, high ones weaker potency. `O=c1cc(-c2ccccc2)c2cc(Cl)c(OCc3nnn(CCN4CCOCC4)n3)cc2o1` [4c, 7-((2-(2-Morpholinoethyl)-2H-tetrazol-5-yl)methoxy)-6-chloro-4-phenyl-2H-chromen-2-one] displayed an IC50 of 565 ± 20 nM.
